Measurements: PubChem BioAssay AID651592 (Sanford-Burnham Center for Chemical Genomics, 2012)
pIC50: −log10 of the molar value.

How the values were obtained:
IL8 = assay: inhibitors of NFkB activation in CF airway cells, SAR follow-up, KKLEB cells, panel, IL8 HTRF, NFkB-GFP (AID 651592); conditions: PAF/TNFa-induced NFkB-GFP / IL8 HTRF, mean of runs, mean IC50 across panel replicates;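 note: immortalized cystic fibrosis airway epithelial KKLEB cells with an NF-kB GFP reporter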
[1] = as above; conditions: PAF/TNFa-induced NFkB-GFP / IL8 HTRF, CF-PAF assay
[2] = biological target: Interleukin-8 (Homo sapiens) (UniProt P10145); assay: as above; conditions: PAF/TNFa-induced NFkB-GFP / IL8 HTRF
[3] = mean of runs, mean IC50 across panel replicates

Chain of Interleukin-8 (Homo sapiens) (P10145 whole entry, looked up): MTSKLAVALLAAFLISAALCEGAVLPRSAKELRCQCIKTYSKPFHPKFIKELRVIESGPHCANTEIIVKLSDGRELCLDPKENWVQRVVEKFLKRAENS

Row | Structure (SMILES) | pIC50 (IL8; PAF-induced) | pIC50 (IL8; TNFa-induced) | pIC50 [1, 3] | pIC50 ([1]; run 1) | pIC50 ([1]; run 2) | pIC50 ([1]; run 3) | pIC50 ([1]; run 4) | pIC50 ([1]; run 5) | pIC50 ([1]; run 6) | pIC50 ([2]; IL8, PAF-induced, run 1) | pIC50 ([2]; IL8, PAF-induced, run 2) | pIC50 ([2]; IL8, PAF-induced, run 3) | pIC50 ([2]; IL8, PAF-induced, run 4) | pIC50 ([2]; IL8, PAF-induced, run 5) | pIC50 ([2]; IL8, PAF-induced, run 6) | pIC50 ([2]; IL8, TNFa-induced, run 1) | pIC50 ([2]; IL8, TNFa-induced, run 2) | pIC50 ([2]; IL8, TNFa-induced, run 3) | pIC50 ([2]; IL8, TNFa-induced, run 4) | pIC50 ([2]; IL8, TNFa-induced, run 5) | further results
1 | O=C(Nc1ccc(N2CCN(C(=O)c3ccccc3Cl)CC2)cc1)c1ccncc1 | 4.45 | 4.26 | 4.93 | 5.14 | 5.06 | 5.03 | 5.28 | 4.95 | 4.54 | < 4.18 | < 4.18 | < 4.18 | 5.94 | 5.44 | 5.00 | < 4.18 | < 4.18 | 5.57 | < 4.18 | < 4.18 | pIC50 ([2]; IL8, TNFa-induced, run 6): < 4.18
2 | Cc1ccc(NCc2cc3c(C(C)(C)C)nn(-c4ccccc4)c3[nH]c2=O)cc1 | 5.35 | < 4.18 | 4.40 | < 4.18 | 4.58 | 4.36 | < 4.18 | 4.87 | 4.62 | 5.57 | 5.49 | 5.46 | 5.42 | 5.23 | 5.10 | < 4.18 | < 4.18 | < 4.18 | < 4.18 | < 4.18 | pIC50 ([2]; IL8, TNFa-induced, run 6): < 4.18
3 | O=C(Nc1ccc(N2CCN(C(=O)c3ccc(F)cc3)CC2)cc1)c1ccncc1 | < 4.18 | < 4.18 | < 4.18 | < 4.18 | < 4.18 | < 4.18 | < 4.18 | < 4.18 | < 4.18 | < 4.18 | < 4.18 | < 4.18 | < 4.18 | < 4.18 | < 4.18 | < 4.18 | < 4.18 | < 4.18 | < 4.18 | < 4.18 | pIC50 ([2]; IL8, TNFa-induced, run 6): < 4.18
4 | O=C(Nc1ccc(N2CCN(C(=O)c3ccccc3F)CC2)cc1)c1cccnc1 | 4.21 | < 4.18 | 4.54 | 5.19 | 5.08 | 5.05 | < 4.18 | < 4.18 | 4.74 | < 4.18 | < 4.18 | < 4.18 | < 4.18 | < 4.18 | 4.42 | < 4.18 | < 4.18 | < 4.18 | < 4.18 | < 4.18 | pIC50 ([2]; IL8, TNFa-induced, run 6): < 4.18
5 | CCOc1ccc(NCc2cc3c(C)nn(-c4ccccc4)c3[nH]c2=O)cc1 | 4.98 | < 4.18 | 4.90 | 4.89 | 4.80 | 4.79 | 5.04 | 4.98 | 4.95 | 4.99 | 4.86 | 4.85 | 5.10 | 5.08 | 5.07 | < 4.18 | < 4.18 | < 4.18 | < 4.18 | < 4.18 | pIC50 ([2]; IL8, TNFa-induced, run 6): < 4.18
6 | O=C(Nc1ccc(N2CCN(C(=O)c3ccccc3Cl)CC2)cc1)c1cncc(Br)c1 | 5.05 | 4.79 | 5.56 | 5.70 | 5.60 | 5.58 | 5.57 | 5.52 | 5.44 | 5.12 | 5.08 | 4.95 | 5.50 | 5.24 | 4.77 | 6.56 | 5.67 | 5.26 | < 4.18 | 5.08 | pIC50 ([2]; IL8, TNFa-induced, run 6): 4.85
7 | O=C(Nc1ccc(N2CCN(C(=O)c3ccc(F)cc3)CC2)cc1)c1ccccn1 | < 4.18 | < 4.18 | < 4.18 | < 4.18 | < 4.18 | < 4.18 | < 4.18 | < 4.18 | < 4.18 | < 4.18 | < 4.18 | < 4.18 | < 4.18 | < 4.18 | < 4.18 | < 4.18 | < 4.18 | < 4.18 | < 4.18 | < 4.18 | pIC50 ([2]; IL8, TNFa-induced, run 6): < 4.18
